Test system: HCV replicon cells
Test: Cell-based HCV replicon assay (replicon RNA level by real time PCR, Taqman)
Conditions: Hepatitis C virus, 72 h, harvested on day 3, EC90 = concentration necessary to achieve ΔCT=3.2 over the baseline, read-out: EC90 Range
Method: Assays Cell-Based HCV Replicon Assay
To measure cell-based anti-HCV activity of the compounds of the present invention, replicon cells were seeded at 5000 cells/well in 96-well collagen I-coated Nunc plates in the presence of the compound of the invention. […] The final concentration of DMSO was 0.5%, fetal bovine serum was 10%, in the assay media. Cells were harvested on day 3 by the addition of 1× cell lysis buffer (Ambion cat #8721). The replicon RNA level was measured using real time PCR (Taqman assay). The amplicon was located in 5B. […] GAPDH RNA was used as endogenous control and was amplified in the same reaction as NS5B (multiplex PCR) using primers and VIC-labeled probe recommended by the manufacturer (PE Applied Biosystem). The real-time RT-PCR reactions were run on ABI PRISM 7900HT Sequence Detection System using the following program: 48° C. for 30 min, 95° C. for 10 min, 40 cycles of 95° C. for 15 sec, 60° C. for 1 min. The ACT values (CT5B-CTGAPDH) were plotted against the concentration of test compound and fitted to the sigmoid dose-response model using GraphPad PRISM software. EC50 was defined as the concentration of inhibitor necessary to achieve ΔCT=1 over the projected baseline; EC90 the concentration necessary to achieve ΔCT=3.2 over the baseline. Alternatively, to quantitate the absolute amount of replicon RNA, a standard curve was established by including serially diluted T7 transcripts of replicon RNA in the Taqman assay. All Taqman reagents were from PE Applied Biosystems. Such an assay procedure was described in detail in e.g. Malcolm et al., Antimicrobial Agents and Chemotherapy 50: 1013-1020 (2006).

Row | SMILES | EC90 [nM]
1 | COC(=O)c1ncccc1C#Cc1c(Cl)nc(N(C)C)nc1N[C@@H]1C[C@H](CO)[C@@H](O)[C@H]1O [Compound 62] | 500 to 5000
2 | COCCNc1nc(Cl)c(C#Cc2ccc(OC)nc2C)c(N[C@@H]2C[C@H](CO)[C@@H](O)[C@H]2O)n1 [Compound 67] | ≤ 500
3 | CCOc1ccc(C#Cc2c(C)nc(NCC(F)(F)F)nc2N[C@@H]2C[C@H](CO)[C@@H](O)[C@H]2O)cn1 [Compound 86] | ≤ 500
4 | Nc1nc(Cl)c(C#Cc2ccc(C(=O)C(F)(F)F)s2)c(N[C@@H]2C[C@H](CO)[C@@H](O)[C@H]2O)n1 [Compound 40] | 500 to 5000
5 | Cc1csc(C#Cc2c(Cl)nc(N)nc2N[C@@H]2C[C@H](CO)[C@@H](O)[C@H]2O)n1 [Compound 46] | > 5000
6 | Nc1nc(Cl)c(C#Cc2ncc(CO)s2)c(N[C@@H]2C[C@H](CO)[C@@H](O)[C@H]2O)n1 [Compound 47] | > 5000
7 | CCOc1ccc(C#Cc2c(C)nc(N)nc2N[C@@H]2C[C@H](CO)[C@@H](O)[C@H]2O)cn1 [Compound 1] | ≤ 500
8 | CCOc1ccc(C#Cc2c(Cl)nc(N(C)C)nc2N[C@@H]2C[C@H](CO)[C@@H](O)[C@H]2O)cn1 [Compound 23] | > 5000
9 | CCOc1ccc(C#Cc2c(Cl)nc(NCCOC)nc2N[C@@H]2C[C@H](CO)[C@@H](O)[C@H]2O)c(C)n1 [Compound 71] | ≤ 500
10 | CCOc1ccc(C#Cc2c(C)nc(NCC(C)(C)C)nc2N[C@@H]2C[C@H](CO)[C@@H](O)[C@H]2O)cn1 [Compound 85] | ≤ 500
11 | COc1ccc(C#Cc2c(Cl)nc(N)nc2N[C@@H]2C[C@H](CO)[C@@H](O)[C@H]2O)c(C)n1 [Compound 3] | ≤ 500
12 | COCCNc1nc(C)c(C#Cc2ccc(OC)nc2OC)c(N[C@@H]2C[C@H](CO)[C@@H](O)[C@H]2O)n1 [Compound 94] | ≤ 500
13 | CCNc1nc(C)c(C#Cc2ccc(OC)nc2)c(N[C@@H]2C[C@H](CO)[C@@H](O)[C@H]2O)n1 [Compound 91] | ≤ 500
14 | Cc1nc(-c2ccc(C#Cc3c(Cl)nc(N)nc3N[C@@H]3C[C@H](CO)[C@@H](O)[C@H]3O)s2)cs1 [Compound 39] | 500 to 5000
15 | Cc1nc(NCc2ccccn2)nc(N[C@@H]2C[C@H](CO)[C@@H](O)[C@H]2O)c1C#Cc1ccsc1 [Compound 102] | ≤ 500
16 | COC[C@H]1C[C@@H](Nc2nc(N)nc(Cl)c2C#Cc2ccsc2)[C@H](O)[C@@H]1O [Compound 61] | 500 to 5000
17 | COCCNc1nc(C)c(C#Cc2ccc(-c3ccccn3)s2)c(N[C@@H]2C[C@H](CO)[C@@H](O)[C@H]2O)n1 [Compound 105] | 500 to 5000
18 | Cc1ccc(C#Cc2c(Cl)nc(N)nc2N[C@@H]2C[C@H](CO)[C@@H](O)[C@H]2O)c(C)n1 [Compound 16] | ≤ 500
19 | COc1ccc(C#Cc2c(Cl)nc(N)nc2N[C@@H]2C[C@H](CO)[C@@H](O)[C@H]2O)c(OC)n1 [Compound 22] | ≤ 500
20 | COc1ccc(C#Cc2c(C)nc(NCCCO)nc2N[C@@H]2C[C@H](CO)[C@@H](O)[C@H]2O)cn1 [Compound 78] | ≤ 500

Row | SMILES | EC90 [nM]
21 | Nc1nc(Cl)c(C#Cc2ccc(Cl)cc2)c(N[C@@H]2C[C@H](CO)[C@@H](O)[C@H]2O)n1 [Compound 27] | 500 to 5000
22 | CCOc1ccc(C#Cc2c(Cl)nc(N)nc2N[C@@H]2C[C@H](CO)[C@@H](O)[C@H]2O)c(C)n1 [Compound 2] | ≤ 500
23 | COc1ccc(C#Cc2c(Cl)nc(NCC(F)(F)F)nc2N[C@@H]2C[C@H](CO)[C@@H](O)[C@H]2O)c(C)n1 [Compound 68] | ≤ 500
24 | CCNc1nc(C)c(C#Cc2ccc(OCC)nc2)c(N[C@@H]2C[C@H](CO)[C@@H](O)[C@H]2O)n1 [Compound 88] | ≤ 500
25 | Cc1nc(-c2ccccc2)c(C#Cc2c(Cl)nc(N)nc2N[C@@H]2C[C@H](CO)[C@@H](O)[C@H]2O)s1 [Compound 35] | ≤ 500
26 | CSCCNc1nc(C)c(C#Cc2ccc(-c3ccccn3)s2)c(N[C@@H]2C[C@H](CO)[C@@H](O)[C@H]2O)n1 [Compound 96] | ≤ 500
27 | CCOc1ccc(C#Cc2c(C)nc(NCCF)nc2N[C@@H]2C[C@H](CO)[C@@H](O)[C@H]2O)cn1 [Compound 89] | 500 to 5000
28 | COCCNc1nc(C)c(C#Cc2ccc(OC)nc2)c(N[C@@H]2C[C@H](CO)[C@@H](O)[C@H]2O)n1 [Compound 77] | ≤ 500
29 | Nc1nc(Cl)c(C#Cc2cccnc2Cl)c(N[C@@H]2C[C@H](CO)[C@@H](O)[C@H]2O)n1 [Compound 10] | 500 to 5000
30 | COc1ccc(C#Cc2c(C)nc(NCC(F)(F)F)nc2N[C@@H]2C[C@H](CO)[C@@H](O)[C@H]2O)cn1 [Compound 90] | 500 to 5000
31 | COc1ccc(C#Cc2c(Cl)nc(N)nc2N[C@@H]2C[C@H](CO)[C@@H](O)[C@H]2O)cn1 [Compound 20, (1R,2S,3R,5R)-3-[[2-Amino-6-chloro-5-[2-(2-methoxypyridin-5-yl)ethynyl]-4-pyrimidinyl]amino]-5-(hydroxymethyl)-1,2-cyclopentanediol] | ≤ 500
32 | CCNC(=O)c1ncccc1C#Cc1c(Cl)nc(N)nc1N[C@@H]1C[C@H](CO)[C@@H](O)[C@H]1O [Compound 56] | 500 to 5000
33 | COc1ccc(C#Cc2c(C)nc(NCC3CC3)nc2N[C@@H]2C[C@H](CO)[C@@H](O)[C@H]2O)cn1 [Compound 92] | ≤ 500
34 | Cc1nc(N)nc(N[C@@H]2C[C@H](CO)[C@@H](O)[C@H]2O)c1C#Cc1nccs1 [Compound 80] | 500 to 5000
35 | Nc1nc(Cl)c(C#Cc2ccccc2Cl)c(N[C@@H]2C[C@H](CO)[C@@H](O)[C@H]2O)n1 [Compound 60] | 500 to 5000
36 | Nc1nc(Cl)c(C#Cc2ccc(-c3ccccn3)s2)c(N[C@@H]2C[C@H](CO)[C@@H](O)[C@H]2O)n1 [Compound 34] | ≤ 500
37 | Cc1nc(NCCCO)nc(N[C@@H]2C[C@H](CO)[C@H]3OC(C)(C)O[C@H]32)c1C#Cc1cccs1 [Compound 100] | 500 to 5000
38 | COCCNc1nc(Cl)c(C#Cc2ccc(OC)nc2)c(N[C@@H]2C[C@H](CO)[C@@H](O)[C@H]2O)n1 [Compound 75] | ≤ 500
39 | CCOc1ccc(C#Cc2c(Cl)nc(NCCOC)nc2N[C@@H]2C[C@H](CO)[C@@H](O)[C@H]2O)cn1 [Compound 73] | ≤ 500
40 | CCOc1ccc(C#Cc2c(Cl)nc(NCC(F)(F)F)nc2N[C@@H]2C[C@H](CO)[C@@H](O)[C@H]2O)cn1 [Compound 74] | ≤ 500

Row | SMILES | EC90 [nM]
41 | CNc1nc(Cl)c(C#Cc2ccccc2C(=O)OC(C)C)c(N[C@@H]2C[C@H](CO)[C@@H](O)[C@H]2O)n1 [Compound 50] | 500 to 5000
42 | CC(C)Oc1ncccc1C#Cc1c(Cl)nc(N)nc1N[C@@H]1C[C@H](CO)[C@@H](O)[C@H]1O [Compound 14] | 500 to 5000
43 | COc1ccc(C#Cc2c(C)nc(NCCSC)nc2N[C@@H]2C[C@H](CO)[C@@H](O)[C@H]2O)cn1 [Compound 84] | ≤ 500
44 | OC[C@H]1C[C@@H](Nc2nc(NCC(F)(F)F)nc(Cl)c2C#Cc2ccc(-c3ccccn3)s2)[C@H](O)[C@@H]1O [Compound 97] | ≤ 500
45 | Nc1nc(Cl)c(C#Cc2ccoc2)c(N[C@@H]2C[C@H](CO)[C@@H](O)[C@H]2O)n1 [Compound 11] | 500 to 5000
46 | Cc1nc(-c2ccccc2)c(C#Cc2c(Cl)nc(NCC(F)(F)F)nc2N[C@@H]2C[C@H](CO)[C@@H](O)[C@H]2O)s1 [Compound 101] | 500 to 5000
47 | CNC(=O)c1ncccc1C#Cc1c(Cl)nc(N)nc1N[C@@H]1C[C@H](CO)[C@@H](O)[C@H]1O [Compound 57] | 500 to 5000
48 | CNc1nc(Cl)c(C#Cc2ccc(OC)nc2C)c(N[C@@H]2C[C@H](CO)[C@@H](O)[C@H]2O)n1 [Compound 65] | ≤ 500
49 | Cc1nc(-c2cccs2)ccc1C#Cc1c(Cl)nc(N)nc1N[C@@H]1C[C@H](CO)[C@@H](O)[C@H]1O [Compound 18] | ≤ 500
50 | CN(C)c1nc(Cl)c(C#Cc2cccs2)c(N[C@@H]2C[C@H](CO)[C@@H](O)[C@H]2O)n1 [Compound 48] | > 5000
51 | Cc1nc(OCC(F)(F)F)ccc1C#Cc1c(Cl)nc(NCC(F)(F)F)nc1N[C@@H]1C[C@H](CO)[C@@H](O)[C@H]1O [Compound 70] | 500 to 5000
52 | CCOCCNc1nc(C)c(C#Cc2ccsc2)c(N[C@@H]2C[C@H](CO)[C@@H](O)[C@H]2O)n1 [Compound 103] | ≤ 500
53 | CNc1nc(Cl)c(C#Cc2ccc(OC)nc2)c(N[C@@H]2C[C@H](CO)[C@@H](O)[C@H]2O)n1 [Compound 19] | ≤ 500
54 | CCCc1ccc(C#Cc2c(Cl)nc(N)nc2N[C@@H]2C[C@H](CO)[C@@H](O)[C@H]2O)cn1 [Compound 79] | ≤ 500
55 | Cc1nc(-c2nccs2)ccc1C#Cc1c(Cl)nc(N)nc1N[C@@H]1C[C@H](CO)[C@@H](O)[C@H]1O [Compound 63] | ≤ 500
56 | Nc1nc(Cl)c(C#Cc2ncc[nH]2)c(N[C@@H]2C[C@H](CO)[C@@H](O)[C@H]2O)n1 [Compound 13] | 500 to 5000
57 | COc1ccc(C#Cc2c(C)nc(NCC3CC3)nc2N[C@@H]2C[C@H](CO)[C@@H](O)[C@H]2O)c(OC)n1 [Compound 95] | ≤ 500
58 | CCCNc1nc(C)c(C#Cc2ccc(OCC)nc2)c(N[C@@H]2C[C@H](CO)[C@@H](O)[C@H]2O)n1 [Compound 87] | ≤ 500
59 | Cc1nc(NCC2CC2)nc(N[C@@H]2C[C@H](CO)[C@@H](O)[C@H]2O)c1C#Cc1ccc(-c2ccccn2)s1 [Compound 104] | 500 to 5000

— patent US8541434B2, “Ethynyl-substituted pyridine and pyrimidine derivatives and their use in treating viral infections” (Merck Sharp & Dohme Corp., priority 2008, dated 2013)
